Values of other authors, collected in patent publication US10610489B2, “Pharmaceutical composition, pharmaceutical dosage form, process for their preparation, methods for treating and uses thereof” (Boehringer Ingelheim International GmbH, priority 2009, dated 2020).

Test system: HbA1c
Conditions: metformin on its own, in the diabetic

Question: Which “average improvement in the HbA1c value” does the source give for `CN(C)C(=N)N=C(N)N` [metformin, dimethyldiguanide] here?
Answer: 1.0-1.5%
